# In patent US9040528B2, “Chemical compounds 542” (AstraZeneca AB, priority 2008, dated 2015):
# Target: Escherichia coli DNA gyrase A/B tetramer (Escherichia coli (strain K12), UniProt P0AES4+P0AES6)
# Test: DNA gyrase supercoiling activity fluorescence polarisation assay
# Assay type: biochemical
# Conditions: 5 nM enzyme, relaxed plasmid, 0.3 mM ATP, ambient temperature; read-out: E. coli DNA gyrase supercoiling IC50
# Outline: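 Supercoiling reactions quenched with 40 nM 5′-BODIPY-FL triplex-forming oligonucleotide probe in pH 3.5 NaCl/sodium acetate buffer; after 60 min, fluorescence anisotropy read (ex 485/em 535 nm). IC50 by nonlinear regression, normalised to 0.8% DMSO (100% activity) and 5 μM ciprofloxacin (0% activity).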
row,Compound,IC50
1,"C[C@@H]1CN2c3c(cc4c(C(F)F)noc4c3F)CC3(C(=O)NC(=O)NC3=O)[C@H]2[C@H](C)O1 [Example 93(b), (2R,4S,4aS)-8-(difluoromethyl)-11-fluoro-2,4-dimethyl-2,4,4a,6-tetrahydro-1H,1′H-spiro[isoxazolo[4,5-g][1,4]oxazino[4,3-a]quinoline-5,5′-pyrimidine]-2′,4′,6′(3′H)-trione]",0.4 µM
2,"C[C@H]1CN2c3c(cc4c(C(=O)NCC(F)F)noc4c3F)CC3(C(=O)NC(=O)NC3=O)[C@@H]2[C@@H](C)O1 [Example 94(a), (2S,4R,4aR)—N-(2,2-difluoroethyl)-11-fluoro-2,4-dimethyl-2′,4′,6′-trioxo-2,2′,3′,4,4a,4′,6,6′-octahydro-1H,1′H-spiro[isoxazolo[4,5-g][1,4]oxazino[4,3-a]quinoline-5,5′-pyrimidine]-8-carboxamide]",51 µM
3,"C[C@@H]1CN2c3c(cc4c(C(=O)NCC(F)F)noc4c3F)CC3(C(=O)NC(=O)NC3=O)[C@H]2[C@H](C)O1 [Example 94(b), (2R,4S,4aS)—N-(2,2-difluoroethyl)-11-fluoro-2,4-dimethyl-2′,4′,6′-trioxo-2,2′,3′,4,4a,4′,6,6′-octahydro-1H,1′H-spiro[isoxazolo[4,5-g][1,4]oxazino[4,3-a]quinoline-5,5′-pyrimidine]-8-carboxamide]",0.8 µM
4,"C[C@@H]1CN2c3c(cc4c(C(=O)N5CC(F)(F)C5)noc4c3F)CC3(C(=O)NC(=O)NC3=O)[C@H]2[C@H](C)O1 [Example 95(a), (2R,4S,4aS)-8-(3,3-difluoroazetidine-1-carbonyl)-11-fluoro-2,4-dimethyl-2,4,4a,6-tetrahydro-1H,1′H-spiro[isoxazolo[4,5-g][1,4]oxazino[4,3-a]quinoline-5,5′-pyrimidine]-2′,4′,6′(3′H)-trione]",1 µM
5,"C[C@@H]1CN2c3c(cc4c(-c5nccs5)noc4c3F)CC3(C(=O)NC(=O)NC3=O)[C@H]2[C@H](C)O1 [Example 96, (2R,4S,4aS)-11-fluoro-2,4-dimethyl-8-(thiazol-2-yl)-2,4,4a,6-tetrahydro-1H,1′H-spiro[isoxazolo[4,5-g][1,4]oxazino[4,3-a]quinoline-5,5′-pyrimidine]-2′,4′,6′(3′H)-trione]",0.7 µM
6,"C[C@H]1CN2c3c(nc4c(-c5nccs5)noc4c3Cl)CC3(C(=O)NC(=O)NC3=O)[C@@H]2[C@@H](C)O1 [Example 111(a), (2S,4R,4aR)-11-chloro-2,4-dimethyl-8-(thiazol-2-yl)-2,4,4a,6-tetrahydro-1H,1′H-spiro[isoxazolo[4,5-g][1,4]oxazino[4,3-a][1,5]naphthyridine-5,5′-pyrimidine]-2′,4′,6′(3′H)-trione]",83 µM
7,"C[C@@H]1CN2c3c(nc4c(-c5nccs5)noc4c3Cl)CC3(C(=O)NC(=O)NC3=O)[C@H]2[C@H](C)O1 [Example 111(b), (2R,4S,4aS)-11-chloro-2,4-dimethyl-8-(thiazol-2-yl)-2,4,4a,6-tetrahydro-1H,1′H-spiro[isoxazolo[4,5-g][1,4]oxazino[4,3-a][1,5]naphthyridine-5,5′-pyrimidine]-2′,4′,6′(3′H)-trione]",1.1 µM
8,"CNC(=O)c1noc2c(F)c3c(cc12)CC1(C(=O)NC(=O)NC1=O)[C@H]1[C@H](C)O[C@H](C)CN31 [Example 140(a), (2R,4S,4aS)-11-fluoro-N,2,4-trimethyl-2′,4′,6′-trioxo-2,2′,3′,4,4a,4′,6,6′-octahydro-1H,1′H-spiro[isoxazolo[4,5-g][1,4]oxazino[4,3-a]quinoline-5,5′-pyrimidine]-8-carboxamide]",0.9 µM
9,"CC(C)NC(=O)c1noc2c(F)c3c(cc12)CC1(C(=O)NC(=O)NC1=O)[C@H]1[C@H](C)O[C@H](C)CN31 [Example 147(a), (2R,4S,4aS)-11-fluoro-N-isopropyl-2,4-dimethyl-2′,4′,6′-trioxo-2,2′,3′,4,4a,4′,6,6′-octahydro-1H,1′H-spiro[isoxazolo[4,5-g][1,4]oxazino[4,3-a]quinoline-5,5′-pyrimidine]-8-carboxamide]",0.9 µM
10,"C[C@H]1CN2c3c(cc4c(-c5ncccn5)noc4c3F)CC3(C(=O)NC(=O)NC3=O)[C@@H]2[C@@H](C)O1 [Example 148(a), (2S,4R,4aR)-11-fluoro-2,4-dimethyl-8-(pyrimidin-2-yl)-2,4,4a,6-tetrahydro-1H,1′H-spiro[isoxazolo[4,5-g][1,4]oxazino[4,3-a]quinoline-5,5′-pyrimidine]-2′,4′,6′(3′H)-trione]",83 µM
11,"C[C@@H]1CN2c3c(cc4c(-c5ncccn5)noc4c3F)CC3(C(=O)NC(=O)NC3=O)[C@H]2[C@H](C)O1 [Example 148(b), (2R,4S,4aS)-11-fluoro-2,4-dimethyl-8-(pyrimidin-2-yl)-2,4,4a,6-tetrahydro-1H,1′H-spiro[isoxazolo[4,5-g][1,4]oxazino[4,3-a]quinoline-5,5′-pyrimidine]-2′,4′,6′(3′H)-trione]",0.4 µM
12,"C[C@@H]1CN2c3c(cc4c(-c5cnccn5)noc4c3F)CC3(C(=O)NC(=O)NC3=O)[C@H]2[C@H](C)O1 [Example 165(b), (2R,4S,4aS)-11-fluoro-2,4-dimethyl-8-(pyrazin-2-yl)-2,4,4a,6-tetrahydro-1H,1′H-spiro[isoxazolo[4,5-g][1,4]oxazino[4,3-a]quinoline-5,5′-pyrimidine]-2′,4′,6′(3′H)-trione]",0.2 µM
13,"C[C@@H]1CN2c3c(cc4c(-c5cnc(N6CCOCC6)cn5)noc4c3F)CC3(C(=O)NC(=O)NC3=O)[C@@H]2[C@@H](C)O1 [Example 166(a), (2R,4R,4aR)-11-fluoro-2,4-dimethyl-8-(5-morpholinopyrazin-2-yl)-2,4,4a,6-tetrahydro-1H,1′H-spiro[isoxazolo[4,5-g][1,4]oxazino[4,3-a]quinoline-5,5′-pyrimidine]-2′,4′,6′(3′H)-trione]",83 µM
14,"C[C@@H]1CN2c3c(cc4c(-c5cnc(N6CCOCC6)cn5)noc4c3F)CC3(C(=O)NC(=O)NC3=O)[C@H]2[C@H](C)O1 [Example 166(b), (2R,4S,4aS)-11-fluoro-2,4-dimethyl-8-(5-morpholinopyrazin-2-yl)-2,4,4a,6-tetrahydro-1H,1′H-spiro[isoxazolo[4,5-g][1,4]oxazino[4,3-a]quinoline-5,5′-pyrimidine]-2′,4′,6′(3′H)-trione]",6.9 µM
15,"COc1cncc(-c2noc3c(F)c4c(cc23)CC2(C(=O)NC(=O)NC2=O)[C@H]2[C@H](C)O[C@H](C)CN42)n1 [Example 167, (2R,4S,4aS)-11-fluoro-8-(6-methoxypyrazin-2-yl)-2,4-dimethyl-2,4,4a,6-tetrahydro-1H,1′H-spiro[isoxazolo[4,5-g][1,4]oxazino[4,3-a]quinoline-5,5′-pyrimidine]-2′,4′,6′(3′H)-trione]",1.1 µM
16,"CSc1nccc(-c2noc3c(F)c4c(cc23)CC2(C(=O)NC(=O)NC2=O)[C@H]2[C@H](C)O[C@H](C)CN42)n1 [Example 168, (2R,4S,4aS)-11-fluoro-2,4-dimethyl-8-(2-(methylthio)pyrimidin-4-yl)-2,4,4a,6-tetrahydro-1H,1′H-spiro[isoxazolo[4,5-g][1,4]oxazino[4,3-a]quinoline-5,5′-pyrimidine]-2′,4′,6′(3′H)-trione]",0.6 µM
